The record followed here is patent US10457707B2, “Substituted urea depsipeptide analogs as activators of the CLPP endopeptidase” (priority 2015, dated 2019).

In brackets after ≈: the same amount, converted by molar mass. Like-named read-outs stand apart in the source and are kept apart here. *1 amine or outer side, *2 acyl side, *3 side chain or, on linkers, in order; H or OH if unused. Where a SMILES comes first, the peptide text is derived from it. Bridges are numbered along the chain shown (N, C = ends). [ ]: non-standard residue; d: D form. The star is where a group is joined. ξ: configuration not given here. Phe(3,5-F2) = N[C@@H](Cc1cc(F)cc(F)c1)C(=O)O; NH(1-Me-indolin-5-yl) = CN1CCc2cc(N*)ccc21; Morpholine(3S-CO) = O=C(O)[C@@H]1COCCN1; NH(4-Cl-2-F-phenyl) = Fc1cc(Cl)ccc1N*; Pro(4R-Me) = C[C@H]1CN[C@H](C(=O)O)C1; Hyp = O=C(O)[C@@H]1C[C@@H](O)CN1; NH(4-Me-phenyl) = Cc1ccc(N*)cc1; ξNMeThr = CNC(C(=O)O)[C@@H](C)O; aThr = C[C@H](O)[C@H](N)C(=O)O; Pip = O=C(O)[C@@H]1CCCCN1; X1 = N#Cc1cc(N*)ccc1F; CO = O=C([*:1])[*:2]

In experiment [1] the target is T1, Sa-ClpP (Staphylococcus aureus, UniProt Q2G036).
T1 construct: made in house; host or cells: E. coli BL21(DE3)
T1 sequence (Q2G036 1-195): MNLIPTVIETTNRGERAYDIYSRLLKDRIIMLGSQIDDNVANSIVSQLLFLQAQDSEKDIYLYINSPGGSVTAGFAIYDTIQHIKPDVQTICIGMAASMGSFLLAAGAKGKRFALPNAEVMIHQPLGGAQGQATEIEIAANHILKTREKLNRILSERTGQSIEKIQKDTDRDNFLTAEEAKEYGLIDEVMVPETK
Briefly: Sa-ClpP casein-BODIPY ClpP activation assay, method variant not marked in Table 5. It is filed as biochemical, S. aureus. A digest of the protocol: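 EC50 for activation derived by dose-response fitting of casein digestion rates, run in triplicate. Conditions: 37° C, pH 8 buffer with 200 mM KCl and 1 mM TCEP, 10 μM Sa-ClpP, 25 μg/ml BODIPY FL casein, compound at 0-1000 μM; signal at 485/528 nm followed 45 min.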

For experiment [2], the system named is Streptococcus pneumoniae, R6. As to the kind of experiment: Minimal inhibitory concentration assay. As to conditions: read-out: Minimal Inhibitory Concentrations S. pneumoniae R6. The experiment is classed as cell-based. The method, boiled down: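 Microbroth dilution with two-fold serial compound dilutions in broth, incubated aerobically overnight at 37° C. MIC taken as the lowest concentration preventing bacterial growth.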

Where [3] appears, read: values without ** or † mark, assay variant not stated, read-out: ClpP Activation EC50.

With `C[C@@H]1C[C@H]2C(=O)O[C@@H](C)[C@H](NC(=O)[C@H](Cc3cc(F)cc(F)c3)NC(=O)Nc3ccc4c(c3)CCN4C)C(=O)N3CCC[C@H]3C(=O)N(C)C([C@@H](C)O)C(=O)N[C@@H](C)C(=O)N2C1` (stereo partly drawn) [Compound 311, (S)-3-(3,5-difluorophenyl)-N-((2R,6S,9R,11aS,17S,18S,20aS)-9-((R)-1-hydroxyethyl)-2,6,10,18-tetramethyl-5,8,11,16,20-pentaoxohexadecahydro-1H,5H,16H-dipyrrolo[2,1-c:2′,1′-l][1]oxa[4,7,10,13]tetraazacyclohexadecin-17-yl)-2-(3-(1-methylindolin-5-yl)ureido)propanamide] ({NH(1-Me-indolin-5-yl)-CO}-[Phe(3,5-F2)][aThr]P[ξNMeThr]A[Pro(4R-Me)]; ester 2-C), the half-maximal effective concentration (EC50) in experiment [1] (setting [3]) amounted to 540 ± 20 nM. Further, the MIC in experiment [2] was 0.078 µM (≈ 0.0665 µg/mL).
For the compound `C[C@@H]1C[C@H]2C(=O)O[C@@H](C)[C@H](NC(=O)[C@H](Cc3cc(F)cc(F)c3)NC(=O)Nc3ccc4c(c3)CCN4C)C(=O)N3CCC[C@H]3C(=O)N3CCOC[C@H]3C(=O)N[C@@H](C)C(=O)N2C1` [Compound 312, (S)-3-(3,5-difluorophenyl)-2-(3-(1-methylindolin-5-yl)ureido)-N-((6aS,12S,13S,15aS,17R,21S,23aS)-13,17,21-trimethyl-6,11,15,20,23-pentaoxooctadecahydro-6H,11H,15H-[1,4]oxazino[3,4-i]dipyrrolo[2,1-c:2′,1′-l][1]oxa[4,7,10,13]tetraazacyclo-hexadecin-12-yl)propanamide] ({NH(1-Me-indolin-5-yl)-CO}-[Phe(3,5-F2)][aThr]P[Morpholine(3S-CO)]A[Pro(4R-Me)]; ester 2-C), in experiment [1] (setting [3]), the EC50 stood at 440 ± 20 nM. For the same compound, the MIC in experiment [2] is 0.078 µM (≈ 0.0664 µg/mL).
As to `C[C@@H]1C[C@H]2C(=O)O[C@@H](C)[C@H](NC(=O)[C@H](Cc3cc(F)cc(F)c3)NC(=O)Nc3ccc(Cl)cc3F)C(=O)N3CCC[C@H]3C(=O)N(C)C([C@@H](C)O)C(=O)N[C@@H](C)C(=O)N2C1` (stereo partly drawn) [Compound 313, (S)-2-(3-(4-chloro-2-fluorophenyl)ureido)-3-(3,5-difluorophenyl)-N-((2R,6S,9R,11aS,17S,18S,20aS)-9-((R)-1-hydroxyethyl)-2,6,10,18-tetramethyl-5,8,11,16,20-pentaoxohexadecahydro-1H,5H,16H-dipyrrolo[2,1-c:2′,1′-l][1]oxa[4,7,10,13]tetraazacyclohexadecin-17-yl)propanamide] ({NH(4-Cl-2-F-phenyl)-CO}-[Phe(3,5-F2)][aThr]P[ξNMeThr]A[Pro(4R-Me)]; ester 2-C), the EC50 in experiment [1] came out at 340 ± 10 nM. Also, the MIC in experiment [2] was less than 0.02 µM.
In experiment [1], `C[C@@H]1C[C@H]2C(=O)O[C@@H](C)[C@H](NC(=O)[C@H](Cc3cc(F)cc(F)c3)NC(=O)Nc3ccc(Cl)cc3F)C(=O)N3CCC[C@H]3C(=O)N3CCOC[C@H]3C(=O)N[C@@H](C)C(=O)N2C1` [Compound 314, (S)-2-(3-(4-chloro-2-fluorophenyl)ureido)-3-(3,5-difluorophenyl)-N-((6aS,12S,13S,15aS,17R,21S,23aS)-13,17,21-trimethyl-6,11,15,20,23-pentaoxooctadecahydro-6H,11H,15H-[1,4]oxazino[3,4-i]dipyrrolo[2,1-c:2′,1′-l][1]oxa[4,7,10,13]tetraazacyclo-hexadecin-12-yl)propanamide] ({NH(4-Cl-2-F-phenyl)-CO}-[Phe(3,5-F2)][aThr]P[Morpholine(3S-CO)]A[Pro(4R-Me)]; ester 2-C) showed an EC50 of 400 ± 10 nM. Moreover, in experiment [2], the MIC was less than 0.02 µM.
Regarding `C[C@@H]1C[C@H]2C(=O)O[C@@H](C)[C@H](NC(=O)[C@H](Cc3cc(F)cc(F)c3)NC(=O)Nc3ccc4c(c3)CCN4C)C(=O)N3C[C@H](O)C[C@H]3C(=O)N3CCOC[C@H]3C(=O)N[C@@H](C)C(=O)N2C1` [Compound 315, (S)-3-(3,5-difluorophenyl)-N-((6aS,8R,12S,13S,15aS,17R,21S,23aS)-8-hydroxy-13,17,21-trimethyl-6,11,15,20,23-pentaoxooctadecahydro-6H,11H,15H-[1,4]oxazino[3,4-i]dipyrrolo[2,1-c:2′,1′-l][1]oxa[4,7,10,13]tetraazacyclohexadecin-12-yl)-2-(3-(1-methylindolin-5-yl)ureido)propanamide] ({NH(1-Me-indolin-5-yl)-CO}-[Phe(3,5-F2)][aThr][Hyp][Morpholine(3S-CO)]A[Pro(4R-Me)]; ester 2-C), the EC50 in experiment [1] (setting [3]) came out at 1060 ± 40 nM. The MIC in experiment [2] came out at 0.313 µM (≈ 0.271 µg/mL).
In experiment [1], `C[C@@H]1C[C@H]2C(=O)O[C@@H](C)[C@H](NC(=O)[C@H](Cc3cc(F)cc(F)c3)NC(=O)Nc3ccc(Cl)cc3F)C(=O)N3C[C@H](O)C[C@H]3C(=O)N3CCOC[C@H]3C(=O)N[C@@H](C)C(=O)N2C1` [Compound 316, (S)-2-(3-(4-chloro-2-fluorophenyl)ureido)-3-(3,5-difluorophenyl)-N-((6aS,8R,12S,13S,15aS,17R,21S,23aS)-8-hydroxy-13,17,21-trimethyl-6,11,15,20,23-pentaoxooctadecahydro-6H,11H,15H-[1,4]oxazino[3,4-i]dipyrrolo[2,1-c:2′,1′-l][1]oxa[4,7,10,13]tetraazacyclo-hexadecin-12-yl)propanamide] ({NH(4-Cl-2-F-phenyl)-CO}-[Phe(3,5-F2)][aThr][Hyp][Morpholine(3S-CO)]A[Pro(4R-Me)]; ester 2-C) showed an EC50 of 450 ± 20 nM. The MIC in experiment [2] is less than 0.02 µM.
Regarding `Cc1ccc(NC(=O)N[C@@H](Cc2cc(F)cc(F)c2)C(=O)N[C@H]2COC(=O)[C@@H]3C[C@@H](C)CN3C(=O)[C@H](C)NC(=O)C([C@@H](C)O)N(C)C(=O)[C@@H]3CCCN3C2=O)cc1` (stereo partly drawn) [Compound 322, (S)-3-(3,5-difluorophenyl)-N-((2R,6S,9R,11aS,17S,20aS)-9-((R)-1-hydroxyethyl)-2,6,10-trimethyl-5,8,11,16,20-pentaoxohexadecahydro-1H,5H,16H-dipyrrolo[2,1-c:2′,1′-l][1]oxa[4,7,10,13]tetraazacyclohexadecin-17-yl)-2-(3-(p-tolyl)ureido)propanamide] ({NH(4-Me-phenyl)-CO}-[Phe(3,5-F2)]SP[ξNMeThr]A[Pro(4R-Me)]; ester 2-C), the EC50 in experiment [1] (setting [3]) came out at 560 ± 30 nM. Further, the MIC in experiment [2] turned out to be 0.156 µM (≈ 0.124 µg/mL).
With `Cc1ccc(NC(=O)N[C@@H](Cc2cc(F)cc(F)c2)C(=O)N[C@H]2COC(=O)[C@@H]3C[C@@H](C)CN3C(=O)[C@H](C)NC(=O)C3CCCCN3C(=O)[C@@H]3C[C@@H](O)CN3C2=O)cc1` (stereo partly drawn) [Compound 323, (S)-3-(3,5-difluorophenyl)-N-((2R,6S,8aR,14aS,16R,20S,23aS)-16-hydroxy-2,6-dimethyl-5,8,14,19,23-pentaoxooctadecahydro-1H,5H,14H,19H-pyrido[2,1-i]dipyrrolo[2,1-c:2′,1′-l][1]oxa[4,7,10,13]tetraazacyclohexadecin-20-yl)-2-(3-(p-tolyl)ureido)propanamide], in experiment [1] (setting [3]), the half-maximal effective concentration (EC50) stood at 670 ± 20 nM. Also, the MIC in experiment [2] came out at 0.078 µM (≈ 0.0632 µg/mL).
For the compound `C[C@@H]1C[C@H]2C(=O)O[C@@H](C)[C@H](NC(=O)[C@H](Cc3cc(F)cc(F)c3)NC(=O)Nc3ccc(F)c(C#N)c3)C(=O)N3CCC[C@H]3C(=O)N3CCCC[C@H]3C(=O)N[C@@H](C)C(=O)N2C1` [Compound 324, (S)-2-(3-(3-cyano-4-fluorophenyl)ureido)-3-(3,5-difluorophenyl)-N-((2R,6S,8aS,14aS,20S,21S,23aS)-2,6,21-trimethyl-5,8,14,19,23-pentaoxooctadecahydro-1H,5H,14H,19H-pyrido[2,1-i]dipyrrolo[2,1-c:2′,1′-l][1]oxa[4,7,10,13]tetraazacyclo-hexadecin-20-yl)propanamide] ({X1-CO}-[Phe(3,5-F2)][aThr]P[Pip]A[Pro(4R-Me)]; ester 2-C), the half-maximal effective concentration (EC50) in experiment [1] stood at 500 ± 30 nM. For the same compound, the MIC in experiment [2] turned out to be 0.625 µM (≈ 0.523 µg/mL).
With `C[C@@H]1C[C@H]2C(=O)OC[C@H](NC(=O)[C@H](Cc3cc(F)cc(F)c3)NC(=O)Nc3ccc4c(c3)OCO4)C(=O)N3C[C@H](O)C[C@H]3C(=O)N3CCCCC3C(=O)N[C@@H](C)C(=O)N2C1` (stereo partly drawn) [Compound 325, (S)-2-(3-(benzo[d][1,3]dioxol-5-yl)ureido)-3-(3,5-difluorophenyl)-N-((2R,6S,8aR,14aS,16R,20S,23aS)-16-hydroxy-2,6-dimethyl-5,8,14,19,23-pentaoxooctadecahydro-1H,5H,14H,19H-pyrido[2,1-i]dipyrrolo[2,1-c:2′,1′-l][1]oxa[4,7,10,13]tetraazacyclo-hexadecin-20-yl)propanamide], the concentration giving a half-maximal response (EC50) in experiment [1] stood at 350 ± 20 nM. For the same compound, in experiment [2], the MIC is 0.078 µM (≈ 0.0655 µg/mL).
In experiment [1], `C[C@@H]1C[C@H]2C(=O)O[C@@H](C)[C@H](NC(=O)[C@H](Cc3cc(F)cc(F)c3)NC(=O)Nc3ccc(F)c(C#N)c3)C(=O)N3C[C@H](O)C[C@H]3C(=O)N3CCOC[C@H]3C(=O)N[C@@H](C)C(=O)N2C1` [Compound 326, (S)-2-(3-(3-cyano-4-fluorophenyl)ureido)-3-(3,5-difluorophenyl)-N-((6aS,8R,12S,13S,15aS,17R,21S,23aS)-8-hydroxy-13,17,21-trimethyl-6,11,15,20,23-pentaoxooctadecahydro-6H,11H,15H-[1,4]oxazino[3,4-i]dipyrrolo[2,1-c:2′,1′-l][1]oxa[4,7,10,13]tetraazacyclo-hexadecin-12-yl)propanamide] ({X1-CO}-[Phe(3,5-F2)][aThr][Hyp][Morpholine(3S-CO)]A[Pro(4R-Me)]; ester 2-C) had an EC50 of 460 ± 40 nM. For the same compound, the MIC in experiment [2] was 0.625 µM (≈ 0.534 µg/mL).

One may read the EC50 as the concentration at which the effect is half-maximal.
